Test results reported in ChEMBL document CHEMBL4507293 (2021).

How the values were obtained:
[1] = target: Mitogen-activated protein kinase kinase kinase kinase 1 (Homo sapiens) (UniProt Q92918); conditions: Compound concentration 100.0 nM
[2] = target: Citron Rho-interacting kinase (Homo sapiens) (UniProt O14578); conditions: Compound concentration 100.0 nM
Bos taurus = species: Bos taurus; assay: Protein Serine/Threonine Kinase, PKA, Non-Selective Eurofins-Panlabs enzyme assay; assay type: protein-complex assay; design: substrate with concentration 370 µg/mL Histone Type III-S, incubation time 15 min, incubation temperature 25 °C; conditions: Compound concentration 10.0 uM
Rattus norvegicus = species: Rattus norvegicus; assay: Protein Serine/Threonine Kinase, PKC, Non-Selective Eurofins-Panlabs enzyme assay; conditions: Compound concentration 10.0 uM
[3] = target: T1, Muscarinic acetylcholine receptor M4 (Homo sapiens) (UniProt P08173); conditions: Compound concentration 10.0 uM
T1 sequence (whole entry): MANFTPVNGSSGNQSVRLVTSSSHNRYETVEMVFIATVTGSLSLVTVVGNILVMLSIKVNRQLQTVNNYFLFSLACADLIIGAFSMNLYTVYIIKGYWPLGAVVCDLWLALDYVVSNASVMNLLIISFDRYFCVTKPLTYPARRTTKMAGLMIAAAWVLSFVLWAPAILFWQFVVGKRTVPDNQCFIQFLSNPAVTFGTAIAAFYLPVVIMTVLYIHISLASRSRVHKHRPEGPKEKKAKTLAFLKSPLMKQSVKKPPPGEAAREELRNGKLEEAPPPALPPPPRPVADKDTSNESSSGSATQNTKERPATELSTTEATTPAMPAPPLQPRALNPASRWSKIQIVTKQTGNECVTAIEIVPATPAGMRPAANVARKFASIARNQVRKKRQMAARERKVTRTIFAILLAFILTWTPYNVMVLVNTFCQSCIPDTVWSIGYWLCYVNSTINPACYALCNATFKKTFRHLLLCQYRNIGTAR

[4] = target: D(1A) dopamine receptor (Homo sapiens) (UniProt P21728); conditions: Compound concentration 10.0 uM
D(1A) dopamine receptor (Homo sapiens), sequence (P21728 whole entry): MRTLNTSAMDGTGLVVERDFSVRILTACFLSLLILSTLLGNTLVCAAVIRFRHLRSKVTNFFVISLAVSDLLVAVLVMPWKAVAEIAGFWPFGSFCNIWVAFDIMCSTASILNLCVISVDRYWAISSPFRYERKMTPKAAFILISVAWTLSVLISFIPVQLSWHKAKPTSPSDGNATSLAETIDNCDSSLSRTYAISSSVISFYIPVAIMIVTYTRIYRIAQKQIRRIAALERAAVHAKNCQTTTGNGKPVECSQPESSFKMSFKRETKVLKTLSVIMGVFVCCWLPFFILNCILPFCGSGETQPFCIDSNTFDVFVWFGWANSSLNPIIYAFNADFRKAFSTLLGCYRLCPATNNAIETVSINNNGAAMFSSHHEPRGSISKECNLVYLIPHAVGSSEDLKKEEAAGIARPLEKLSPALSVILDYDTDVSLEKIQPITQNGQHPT

[5] = target: Progesterone receptor (Homo sapiens) (UniProt P06401); assay: Inhibition of Progesterone PR-B at 10 µM in the Eurofins-Panlabs radioligand binding assay (Eurofins_assay_268020); design: ligand concentration 1.4 nM; conditions: Compound concentration 10.0 uM
Progesterone receptor (Homo sapiens), sequence (P06401 whole entry): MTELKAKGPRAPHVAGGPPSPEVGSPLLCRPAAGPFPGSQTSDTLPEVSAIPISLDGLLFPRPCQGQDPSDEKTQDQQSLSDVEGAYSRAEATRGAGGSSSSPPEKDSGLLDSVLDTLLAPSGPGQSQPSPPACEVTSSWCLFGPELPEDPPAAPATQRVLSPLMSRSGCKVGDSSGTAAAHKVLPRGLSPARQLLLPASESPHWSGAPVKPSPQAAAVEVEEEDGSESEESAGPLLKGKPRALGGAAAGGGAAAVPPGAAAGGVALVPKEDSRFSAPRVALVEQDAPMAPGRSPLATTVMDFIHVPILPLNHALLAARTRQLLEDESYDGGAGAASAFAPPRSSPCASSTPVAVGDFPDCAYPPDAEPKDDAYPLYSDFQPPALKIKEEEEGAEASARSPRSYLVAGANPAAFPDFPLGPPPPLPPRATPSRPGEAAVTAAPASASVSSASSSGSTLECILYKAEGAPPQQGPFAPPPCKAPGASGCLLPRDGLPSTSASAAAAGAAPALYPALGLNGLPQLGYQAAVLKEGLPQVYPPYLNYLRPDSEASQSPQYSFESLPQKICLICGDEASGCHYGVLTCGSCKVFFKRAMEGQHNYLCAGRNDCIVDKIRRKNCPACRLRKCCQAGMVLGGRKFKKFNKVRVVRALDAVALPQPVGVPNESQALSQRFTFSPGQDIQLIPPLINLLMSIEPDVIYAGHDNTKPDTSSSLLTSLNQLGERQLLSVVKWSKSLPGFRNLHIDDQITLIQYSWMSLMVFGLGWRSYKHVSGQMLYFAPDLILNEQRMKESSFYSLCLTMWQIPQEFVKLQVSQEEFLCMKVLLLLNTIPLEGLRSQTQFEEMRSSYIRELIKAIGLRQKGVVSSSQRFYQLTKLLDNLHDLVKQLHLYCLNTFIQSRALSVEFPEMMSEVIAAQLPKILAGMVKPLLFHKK

[6] = target: Endothelin receptor type B (Homo sapiens) (UniProt P24530); conditions: Compound concentration 10.0 uM
Endothelin receptor type B (Homo sapiens), sequence (P24530 whole entry): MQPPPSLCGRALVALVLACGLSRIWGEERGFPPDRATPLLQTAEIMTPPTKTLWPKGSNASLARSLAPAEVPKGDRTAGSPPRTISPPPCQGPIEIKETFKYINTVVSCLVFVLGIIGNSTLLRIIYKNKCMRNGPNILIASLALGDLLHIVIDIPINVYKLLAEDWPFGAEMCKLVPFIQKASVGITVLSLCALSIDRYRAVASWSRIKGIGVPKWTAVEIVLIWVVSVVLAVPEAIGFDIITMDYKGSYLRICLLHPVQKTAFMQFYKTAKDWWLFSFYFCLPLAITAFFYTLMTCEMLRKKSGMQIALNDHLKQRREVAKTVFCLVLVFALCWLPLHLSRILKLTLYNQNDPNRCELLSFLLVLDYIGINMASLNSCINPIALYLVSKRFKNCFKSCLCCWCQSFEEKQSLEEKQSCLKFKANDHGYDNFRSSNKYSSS

[7] = target: Vasoactive intestinal polypeptide receptor 1 (Homo sapiens) (UniProt P32241); assay: Inhibition of Vasoactive Intestinal Peptide VIP1 at 10 µM in the Eurofins-Panlabs radioligand binding assay (Eurofins_assay_287010); conditions: Compound concentration 10.0 uM
Vasoactive intestinal polypeptide receptor 1 (Homo sapiens), sequence (P32241 whole entry): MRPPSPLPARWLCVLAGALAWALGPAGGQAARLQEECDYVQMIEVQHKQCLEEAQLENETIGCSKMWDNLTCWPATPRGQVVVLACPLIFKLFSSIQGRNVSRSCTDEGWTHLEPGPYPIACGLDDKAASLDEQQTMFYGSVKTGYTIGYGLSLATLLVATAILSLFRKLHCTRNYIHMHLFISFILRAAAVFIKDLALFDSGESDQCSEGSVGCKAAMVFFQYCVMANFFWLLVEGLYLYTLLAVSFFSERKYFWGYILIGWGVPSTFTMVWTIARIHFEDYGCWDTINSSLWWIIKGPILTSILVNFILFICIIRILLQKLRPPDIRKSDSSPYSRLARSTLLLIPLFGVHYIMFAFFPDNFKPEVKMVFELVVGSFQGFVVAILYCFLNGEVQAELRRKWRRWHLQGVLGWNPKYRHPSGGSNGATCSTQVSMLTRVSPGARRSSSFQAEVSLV

[8] = target: B1 bradykinin receptor (Homo sapiens) (UniProt P46663); assay: Inhibition of Bradykinin B1 at 10 µM in the Eurofins-Panlabs radioligand binding assay (Eurofins_assay_212510); conditions: Compound concentration 10.0 uM
B1 bradykinin receptor (Homo sapiens), sequence (P46663 whole entry): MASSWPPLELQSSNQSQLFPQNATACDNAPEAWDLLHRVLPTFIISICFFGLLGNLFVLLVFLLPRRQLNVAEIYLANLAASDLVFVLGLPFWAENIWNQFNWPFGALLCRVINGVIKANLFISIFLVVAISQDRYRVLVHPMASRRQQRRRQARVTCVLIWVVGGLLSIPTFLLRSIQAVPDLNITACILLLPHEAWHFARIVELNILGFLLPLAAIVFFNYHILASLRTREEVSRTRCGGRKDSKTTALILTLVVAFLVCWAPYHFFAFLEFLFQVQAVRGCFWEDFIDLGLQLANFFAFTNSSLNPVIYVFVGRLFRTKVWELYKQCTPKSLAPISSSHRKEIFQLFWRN

Mitogen-activated protein kinase kinase kinase kinase 1 (Homo sapiens), sequence (Q92918 whole entry, looked up): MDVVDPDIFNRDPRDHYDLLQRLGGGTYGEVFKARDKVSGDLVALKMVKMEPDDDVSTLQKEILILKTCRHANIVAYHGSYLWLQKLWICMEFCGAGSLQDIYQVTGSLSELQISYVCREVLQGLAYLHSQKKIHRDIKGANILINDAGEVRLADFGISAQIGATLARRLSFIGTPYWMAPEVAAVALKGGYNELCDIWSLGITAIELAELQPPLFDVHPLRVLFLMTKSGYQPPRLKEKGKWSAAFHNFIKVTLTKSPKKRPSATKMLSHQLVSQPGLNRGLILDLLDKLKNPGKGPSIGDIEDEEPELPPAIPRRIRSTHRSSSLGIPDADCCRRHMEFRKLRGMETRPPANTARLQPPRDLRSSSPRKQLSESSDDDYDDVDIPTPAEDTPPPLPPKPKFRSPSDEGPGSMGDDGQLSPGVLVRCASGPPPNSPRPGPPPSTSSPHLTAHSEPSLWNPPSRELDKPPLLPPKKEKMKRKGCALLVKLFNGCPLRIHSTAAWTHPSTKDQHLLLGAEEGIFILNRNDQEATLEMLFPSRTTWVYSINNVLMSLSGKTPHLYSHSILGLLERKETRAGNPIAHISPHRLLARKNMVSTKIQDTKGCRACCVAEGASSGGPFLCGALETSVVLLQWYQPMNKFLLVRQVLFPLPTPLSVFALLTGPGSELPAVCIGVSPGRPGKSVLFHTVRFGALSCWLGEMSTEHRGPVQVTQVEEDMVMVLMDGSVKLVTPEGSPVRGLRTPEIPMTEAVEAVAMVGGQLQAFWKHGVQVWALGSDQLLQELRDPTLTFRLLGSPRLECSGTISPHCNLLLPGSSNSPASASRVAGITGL

CC(C)CC(=O)N1CCc2nc(-c3ccc(Br)cc3)nc(N(C)Cc3ccccc3)c2C1 [THPP-1-NC]
inactive: residual activity [1] 93% | residual activity [2] 100%

COCCOc1nc(-c2ccc(Cl)nc2)nc2c1CN(C(=O)c1ncn3ccccc13)CC2 [THPP-1]
inactive: inhibition (Bos taurus) -7% | inhibition (Rattus norvegicus) 12% | inhibition [3] 5% | inhibition [4] 6% | inhibition [5] 12% | inhibition [6] 0% | inhibition [7] 8% | inhibition [8] 28%
